This passage reports EC50 and Emax results from US20210147381A1, “1,2,3,4-SUBSTITUTED QUINOLINE COMPOUNDS AS SIP MODULATORS” (AbbVie Deutschland GmbH & Co. KG, priority 2017, published 2021).

Each structure is given as a SMILES string.

Holding throughout (assay type): cell-based
The target in experiment [1] is T1, human S1P1 receptor (S1PR1) (Homo sapiens, UniProt P21453).
T1 construct: host or cells: CHO-K1
Briefly: Intracellular Ca2+ release (method 1), agonist potency, S1P1. The note with it: CHO-K1 cells expressing human S1PR1. As to the method: (§1) Agonistic activity and efficacy of compounds was assessed in recombinant cells using method 1 described below.
(§2) Agonist potency and efficacy were assessed by measurement of intracellular Ca^2+ release. Recombinant CHO-K1 cells (Euroscreen, Brussels, Belgium) expressing human S1PR5, S1PR1, S1PR3 or S1PR4 receptors, aequorin, and GTP binding protein Gq/i5 were cultured using a medium containing nutrient mixture F-12 Ham (Sigma-Aldrich) with 10% FBS, and 100 μg/mL gentamicin and equilibrated at 5% CO2.
(§3) 15,000 cells in 20 μL medium were seeded into Biocoat poly-D-Lysine coated 384 well plates (Becton Dickinson #35-6663) and grown to 95% confluency after 24 h.
(§4) Culture medium was replaced by an assay buffer consisting of HBBS with Ca^2+ and Mg^2+ (Invitrogen #14025-050), 20 mmol/L Hepes (Sigma-Aldrich #H-3375), 2.5 mmol/L probenecid (Sigma-Aldrich #P-8761, and 0.1% BSA (Sigma-Aldrich #A-7030) pH 7.4. The Calcium 5 no-wash FLIPR assay kit (Molecular Devices #5000625) was performed as described in the kit instructions. Cells were incubated with Calcium 5 dye for 1 h at 37° C., 5% CO2 in the dark. After 45 min adaptation to RT assessment of agonist stimulation of intracellular Ca^2+ release was performed by addition of test compounds at various concentrations obtained by serial dilution. Phospho-fingolimod was used as positive control and reference agonist (intrinsic activity 100%).
(§5) Agonism of test compounds at the human S1Px receptors were characterized by the EC50 values (potencies) deduced from a nonlinear 4 parametric logistic curve fit to the measured fluorescence data after normalization to the lower and upper plateaus of the fitted reference agonist's (phospho-fingolimod)effect curve and by their efficacy (Emax) values represented by their maximum achievable effects in % of the reference agonist's efficacy, which is defined as an Emax of 100%.

In experiment [2] the target is T2, human S1P3 receptor (S1PR3) (Homo sapiens, UniProt Q99500).
T2 construct: host or cells: CHO-K1
Nature of the experiment: Intracellular Ca2+ release (method 1), agonist potency, S1P3. The note with it: CHO-K1 cells expressing human S1PR3. The method, then: as §1, §2, §3, §4, §5

Experiment [3] has as its target T3, human S1P5 receptor (S1PR5) (Homo sapiens, UniProt Q9H228).
T3 construct: host or cells: CHO-K1
Nature of the experiment: Intracellular Ca2+ release (method 1), agonist potency and efficacy, S1P5. The note with it: for Emax: maximum effect in % of reference agonist phospho-fingolimod (100%), read-out: hS1P5 EMax; for EC50: recombinant CHO-K1 cells expressing human S1PR5, aequorin, Gq/i5, Ca2+ release, read-out: S1P5 EC50 range. As to the method:
as §1, §2, §3, §4, §5

Experiment [4] deals with T4, human S1P4 receptor (S1PR4) (Homo sapiens, UniProt O95977).
T4 construct: host or cells: CHO-K1
T4 sequence (O95977 1-384): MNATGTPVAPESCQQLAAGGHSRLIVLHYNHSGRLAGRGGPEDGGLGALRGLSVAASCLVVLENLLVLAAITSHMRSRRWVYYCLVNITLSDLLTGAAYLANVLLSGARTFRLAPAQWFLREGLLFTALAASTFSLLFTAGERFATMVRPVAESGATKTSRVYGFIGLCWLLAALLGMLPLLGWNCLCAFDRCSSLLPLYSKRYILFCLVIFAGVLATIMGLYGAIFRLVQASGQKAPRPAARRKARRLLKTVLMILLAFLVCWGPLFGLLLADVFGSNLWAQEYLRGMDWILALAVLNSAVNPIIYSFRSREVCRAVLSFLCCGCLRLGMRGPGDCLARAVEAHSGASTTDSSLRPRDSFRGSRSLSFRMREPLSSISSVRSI
Nature of the experiment: Intracellular Ca2+ release (method 1), agonist potency, S1P4. The note with it: CHO-K1 cells expressing human S1PR4. The method, then:
as §1, §2, §3, §4, §5

T1 sequence (P21453 whole entry): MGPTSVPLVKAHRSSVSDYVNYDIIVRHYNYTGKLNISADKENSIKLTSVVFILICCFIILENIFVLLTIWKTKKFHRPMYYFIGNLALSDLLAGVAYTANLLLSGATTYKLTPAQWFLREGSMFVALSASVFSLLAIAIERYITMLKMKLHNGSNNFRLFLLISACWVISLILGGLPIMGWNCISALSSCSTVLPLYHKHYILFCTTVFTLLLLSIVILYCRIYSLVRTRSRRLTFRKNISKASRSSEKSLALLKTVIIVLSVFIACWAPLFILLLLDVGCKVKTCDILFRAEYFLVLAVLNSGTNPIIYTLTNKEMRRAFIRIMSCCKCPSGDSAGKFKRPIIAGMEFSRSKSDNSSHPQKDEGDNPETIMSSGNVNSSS
T3 sequence (Q9H228 whole entry): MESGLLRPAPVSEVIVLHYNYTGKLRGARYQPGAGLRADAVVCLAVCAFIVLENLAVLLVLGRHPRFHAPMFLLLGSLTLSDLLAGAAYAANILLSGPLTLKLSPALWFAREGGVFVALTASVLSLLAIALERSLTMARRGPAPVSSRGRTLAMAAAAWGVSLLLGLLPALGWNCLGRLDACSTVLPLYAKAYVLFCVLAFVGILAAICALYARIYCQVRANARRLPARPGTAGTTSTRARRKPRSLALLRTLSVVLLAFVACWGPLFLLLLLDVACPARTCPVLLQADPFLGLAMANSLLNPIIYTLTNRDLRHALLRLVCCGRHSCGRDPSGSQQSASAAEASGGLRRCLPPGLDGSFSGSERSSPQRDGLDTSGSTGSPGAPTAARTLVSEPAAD
T2 sequence (Q99500 whole entry): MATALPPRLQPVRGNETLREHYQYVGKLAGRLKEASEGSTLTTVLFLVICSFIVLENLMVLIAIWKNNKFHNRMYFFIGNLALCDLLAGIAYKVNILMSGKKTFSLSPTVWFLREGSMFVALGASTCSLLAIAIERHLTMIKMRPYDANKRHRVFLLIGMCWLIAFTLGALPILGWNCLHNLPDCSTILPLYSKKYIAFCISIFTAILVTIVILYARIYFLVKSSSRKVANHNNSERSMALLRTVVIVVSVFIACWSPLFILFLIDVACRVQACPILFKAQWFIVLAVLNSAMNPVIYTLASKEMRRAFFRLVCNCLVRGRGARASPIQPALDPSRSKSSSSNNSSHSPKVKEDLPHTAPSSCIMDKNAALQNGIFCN

For the molecule `CC(C)Oc1ccc(C#Cc2ccc3c(c2)C2(CC2)CN(CCCC(=O)O)C3)cn1` [Compound 2, 4-(6′-((6-isopropoxypyridin-3-yl)ethynyl)-1′H-spiro[cyclopropane-1,4′-isoquinolin]-2′(3′H)-yl)butanoic acid], the EC50 was over 1 µM in experiment [1] (cells given as bound), over 1 µM in experiment [2], under 0.01 µM in experiment [3] and over 1 µM in experiment [4] (cells given as bound). Further, the maximum response (Emax) in experiment [3] was 50 to 100%.

Turning to `CCOc1ccc(C#Cc2ccc3c(c2)C2(CC2)CN(CCCC(=O)O)C3)cc1` [Compound 3, 2′-(3-carboxypropyl)-6′-((4-ethoxyphenyl)ethynyl)-2′,3′-dihydro-1′H-spiro[cyclopropane-1,4′-isoquinolin]-2′-ium 2,2,2-trifluoroacetate], the concentration giving a half-maximal response (EC50) was 0.1 to 1 µM in experiment [1], over 1 µM in experiment [2], under 0.01 µM in experiment [3] and over 1 µM in experiment [4] (cells given as bound). The maximal effect (Emax) in experiment [3] fell in the range of 50 to 100%.

In the case of `O=C(O)CCN1Cc2ccc(C#Cc3cccc(F)c3F)cc2C2(CC2)C1` [Compound 10, 3-(6′-((2,3-Difluorophenyl)ethynyl)-1′H-spiro[cyclopropane-1,4′-isoquinolin]-2′(3′H)-yl)propanoic acid], the EC50 was over 1 µM in experiment [1] (cells given as bound), over 1 µM in experiment [2], under 0.01 µM in experiment [3] and 0.01 to 0.1 µM in experiment [4]. Moreover, the Emax in experiment [3] was over 100%.

Consider `O=C(O)CCN1Cc2ccc(C#Cc3c(Cl)cccc3Cl)cc2C2(CC2)C1` [Compound 11, 3-(6′-((2,6-dichlorophenyl)ethynyl)-1′H-spiro[cyclopropane-1,4′-isoquinolin]-2′(3′H)-yl)propanoic acid], for which the EC50 was over 1 µM in experiment [1] (cells given as bound), over 1 µM in experiment [2], under 0.01 µM in experiment [3] and 0.01 to 0.1 µM in experiment [4]. The Emax in experiment [3] lay within 50 to 100%.

For the molecule `CCc1cccc(Cl)c1COc1ccc2c(c1)C1(CC1)CN(CC(=O)O)C2` [Compound 13, 2-(6′-((2-Chloro-6-ethylbenzyl)oxy)-1′H-spiro[cyclopropane-1,4′-isoquinolin]-2′(3′H)-yl)acetic acid], the EC50 was over 1 µM in experiment [1] (cells given as bound), over 1 µM in experiment [2], under 0.01 µM in experiment [3] and 0.1 to 1 µM in experiment [4]. The Emax in experiment [3] lay within 50 to 100%.

For the molecule `O=C(O)CCCN1Cc2ccc(OCc3ccccc3OC(F)(F)F)cc2C2(CC2)C1` [Compound 14, 4-(6′-((2-(Trifluoromethoxy)benzyl)oxy)-1′H-spiro[cyclopropane-1,4′-isoquinolin]-2′(3′H)-yl)butanoic acid], the EC50 in experiment [1] (cells given as bound) was over 1 µM; in experiment [2] it was over 1 µM; in experiment [3], under 0.01 µM; in experiment [4], 0.1 to 1 µM. Further, the Emax in experiment [3] lay within 50 to 100%.

Take `O=C(O)CCCN1Cc2ccc(OCc3c(Cl)cccc3Cl)cc2C2(CC2)C1` [Compound 15, 4-(6′-((2,6-Dichlorobenzyl)oxy)-1′H-spiro[cyclopropane-1,4′-isoquinolin]-2′(3′H)-yl)butanoic acid]: the EC50 in experiment [1] (cells given as bound) was over 1 µM; in experiment [2], over 1 µM; in experiment [3] it was under 0.01 µM; in experiment [4] it was 0.01 to 0.1 µM. Further, the Emax in experiment [3] is over 100%.

On to `O=C(O)CCCN1Cc2ccc(OCc3ccc(F)c(F)c3)cc2C2(CC2)C1` [Compound 18, 4-(6′-((3,4-Difluorobenzyl)oxy)-1′H-spiro[cyclopropane-1,4′-isoquinolin]-2′(3′H)-yl)butanoic acid], for which the EC50 in experiment [1] (cells given as bound) is over 1 µM; in experiment [2], over 1 µM; in experiment [3], 0.01 to 0.1 µM; in experiment [4] it was 0.1 to 1 µM. Also, the Emax in experiment [3] is under 50%.

In the case of `O=C(O)CCCN1Cc2ccc(OCc3ccccc3F)cc2C2(CC2)C1` [Compound 19, 4-(6′-((2-Fluorobenzyl)oxy)-1′H-spiro[cyclopropane-1,4′-isoquinolin]-2′(3′H)-yl)butanoic acid], the EC50 is over 1 µM in experiment [1] (cells given as bound), over 1 µM in experiment [2], under 0.01 µM in experiment [3] and over 1 µM in experiment [4] (cells given as bound). For the same molecule, the Emax in experiment [3] lay in the range of 50 to 100%.

Take `O=C(O)CCCN1Cc2ccc(OCc3cccc(OC(F)(F)F)c3)cc2C2(CC2)C1` [Compound 20, 4-(6′-((3-(Trifluoromethoxy)benzyl)oxy)-1′H-spiro[cyclopropane-1,4′-isoquinolin]-2′(3′H)-yl)butanoic acid]: the EC50 in experiment [1] (cells given as bound) was over 1 µM; in experiment [2] it was over 1 µM; in experiment [3], 0.01 to 0.1 µM; in experiment [4], 0.1 to 1 µM. In addition, the Emax in experiment [3] was under 50%.

For the molecule `O=C(O)CCCN1Cc2ccc(OCc3cccc(F)c3F)cc2C2(CC2)C1` [Compound 21, 4-(6′-((2,3-Difluorobenzyl)oxy)-1′H-spiro[cyclopropane-1,4′-isoquinolin]-2′(3′H)-yl)butanoic acid], the EC50 in experiment [1] (cells given as bound) was over 1 µM; in experiment [2], over 1 µM; in experiment [3], 0.01 to 0.1 µM; in experiment [4] it was 0.1 to 1 µM. Besides, in experiment [3], the Emax is under 50%.

Take `Cc1ccccc1COc1ccc2c(c1)C1(CC1)CN(CCCC(=O)O)C2` [Compound 22, 4-(6′-((2-Methylbenzyl)oxy)-1′H-spiro[cyclopropane-1,4′-isoquinolin]-2′(3′H)-yl)butanoic acid]: the EC50 in experiment [1] (cells given as bound) is over 1 µM; in experiment [2], over 1 µM; in experiment [3], under 0.01 µM; in experiment [4], 0.1 to 1 µM. Besides, in experiment [3], the Emax fell in the range of 50 to 100%.

As for `O=C(O)CCCN1Cc2ccc(OCc3cccc(F)c3)cc2C2(CC2)C1` [Compound 23, 4-(6′-((3-Fluorobenzyl)oxy)-1′H-spiro[cyclopropane-1,4′-isoquinolin]-2′(3′H)-yl)butanoic acid], the half-maximal effective concentration (EC50) in experiment [1] (cells given as bound) was over 1 µM; in experiment [2] it was over 1 µM; in experiment [3], 0.01 to 0.1 µM; in experiment [4] (cells given as bound), over 1 µM. Also, in experiment [3], the Emax was 50 to 100%.

Regarding `O=C(O)CCCN1Cc2ccc(OCc3cccc(Cl)c3)cc2C2(CC2)C1` [Compound 24, 4-(6′-((3-Chlorobenzyl)oxy)-1′H-spiro[cyclopropane-1,4′-isoquinolin]-2′(3′H)-yl)butanoic acid], the EC50 in experiment [1] (cells given as bound) is over 1 µM; in experiment [2], over 1 µM; in experiment [3], under 0.01 µM; in experiment [4], 0.1 to 1 µM. The Emax in experiment [3] was 50 to 100%.

As for `O=C(O)CCCN1Cc2ccc(OCc3ccccc3Cl)cc2C2(CC2)C1` [Compound 25, 4-(6′-((2-Chlorobenzyl)oxy)-1′H-spiro[cyclopropane-1,4′-isoquinolin]-2′(3′H)-yl)butanoic acid], the EC50 in experiment [1] (cells given as bound) is over 1 µM; in experiment [2], over 1 µM; in experiment [3] it was under 0.01 µM; in experiment [4], 0.1 to 1 µM. Besides, the Emax in experiment [3] lay within 50 to 100%.

Consider `O=C(O)CCCN1Cc2ccc(OCc3ccc(Cl)c(Cl)c3)cc2C2(CC2)C1` [Compound 26, 4-(6′-((3,4-Dichlorobenzyl)oxy)-1′H-spiro[cyclopropane-1,4′-isoquinolin]-2′(3′H)-yl)butanoic acid], for which the EC50 in experiment [1] (cells given as bound) is over 1 µM; in experiment [2], over 1 µM; in experiment [3], 0.01 to 0.1 µM; in experiment [4] it was 0.01 to 0.1 µM. In addition, the Emax in experiment [3] was 50 to 100%.

As for `CCc1cccc(Cl)c1COc1ccc2c(c1)C1(CC1)CN(CCCC(=O)O)C2` [Compound 27, 4-(6′-((2-Chloro-6-ethylbenzyl)oxy)-1′H-spiro[cyclopropane-1,4′-isoquinolin]-2′(3′H)-yl)butanoic acid], the EC50 in experiment [1] (cells given as bound) was over 1 µM; in experiment [2], over 1 µM; in experiment [3], under 0.01 µM; in experiment [4], under 0.01 µM. Besides, the Emax in experiment [3] was over 100%.

As a reminder, the EC50 is the concentration that produces a half-maximal response. In general, Emax refers to the size of the effect at its maximum, as opposed to the concentration needed.
